From ChEMBL document CHEMBL3603817, “Potent and Selective Inhibitors of Histone Deacetylase-3 Containing Chiral Oxazoline Capping Groups and a N-(2-Aminophenyl)-benzamide Binding Unit” (J Med Chem, 2015) come the findings set out here.

Holding throughout (assay type): physicochemical
Series [1] is described as follows: Lipophilicity, log P of the compound. The note with it: octanol/water.
A short description of series [2]: Distribution coefficient, log D of the compound by HPLC method. The note with it: octanol/water.
Series [3] is described as follows: Solubility by CLND method.

Values after ≈ are worked out from the molar mass of the structure shown.

Broadly, the logP is the decadic logarithm of the partition coefficient of the neutral form, usually between octanol and water. High values mean a more lipophilic compound, low ones a more hydrophilic compound. As usually defined, the logD is the decadic logarithm of the distribution of all forms, ionised or not, between an organic phase and buffer at a given pH. A lower logD goes with a more hydrophilic compound. A word on the solubility (kinetic): it is the concentration staying in solution when a stock, usually in DMSO, is diluted into the medium. In series [1], `Nc1ccccc1NC(=O)c1ccc(CNC2=N[C@@H](c3ccccc3)CN2)cc1` registered a logP of 3.46. This compound returned a logD in series [2] of 1.92. In series [3], this compound returned a kinetic solubility not below 70 µg/mL.

In series [1], `Nc1ccccc1NC(=O)c1ccc(CSC2=N[C@@H](c3ccccc3)CN2)cc1` yielded a logP of 4.31. In addition, the logD in series [2] turned out to be 3.49. The kinetic solubility in series [3] was 116 µg/mL (≈ 288 µM).

Turning to `Nc1ccccc1NC(=O)c1ccc(CSC2=N[C@@H](c3cccnc3)CO2)cc1`, in series [1], the logP amounted to 3.32. The logD in series [2] worked out at 3.19. The kinetic solubility in series [3] was 108 µg/mL (≈ 267 µM).

For the compound `Nc1ccccc1NC(=O)c1ccc(CSC2=N[C@@H](Cc3ccccc3)CO2)cc1`, in series [1], the logP worked out at 5.67. The compound further showed a logD in series [2] of 5.41. This compound also displayed a kinetic solubility in series [3] of 31 µg/mL (≈ 74.2 µM).

In series [1], `Nc1ccccc1NC(=O)c1ccc(CNC2=N[C@@H](c3ccccc3)CO2)cc1` had a logP of 3.74. In addition, in series [2], the logD amounted to 3.1.

In the case of `Nc1ccccc1NC(=O)c1ccc(CNC2=N[C@H](c3ccccc3)CO2)cc1`, in series [1], the logP came to 3.76. Besides, in series [2], the logD is 3.09. This compound returned a kinetic solubility in series [3] not below 151 µg/mL.

Consider `Nc1ccccc1NC(=O)c1ccc(CNC2=NC(c3ccc(F)cc3)CO2)cc1` (stereo not drawn), for which the logP in series [1] came out at 3.97. The same compound gave a kinetic solubility in series [3] of 147 µg/mL (≈ 363 µM).

Compound `Nc1ccccc1NC(=O)c1ccc(CNC2=NC(c3cccc(F)c3)CO2)cc1` (stereo not drawn) gave a logP in series [1] of 3.84. This compound showed a log distribution coefficient (logD) in series [2] of 3.42. The solubility (kinetic) in series [3] was not below 131 µg/mL.

As for `Nc1ccccc1NC(=O)c1ccc(CNC2=NC(c3ccc(C(F)(F)F)cc3)CO2)cc1` (stereo not drawn), in series [1], the logP amounted to 4.72. In addition, the logD in series [2] came to 4.54. This compound also had a solubility (kinetic) in series [3] of 8 µg/mL (≈ 17.6 µM).

Consider `Nc1ccccc1NC(=O)c1ccc(CNC2=N[C@@H](c3ccc(O)cc3)CO2)cc1`, for which the log partition coefficient (logP) in series [1] was found to be 2.13. This compound also yielded a logD in series [2] of 1.74. The compound further showed a solubility (kinetic) in series [3] not below 130 µg/mL.

Regarding `Nc1ccccc1NC(=O)c1ccc(CNC2=N[C@@H](c3cccnc3)CO2)cc1`, the logP in series [1] was 1.78. Further, the logD in series [2] turned out to be 1.71. Besides, the solubility (kinetic) in series [3] was not below 124 µg/mL.

In turn, `Nc1ccccc1NC(=O)c1ccc(CNC2=N[C@@H](Cc3ccccc3)CO2)cc1` showed a logP in series [1] of 4.15. In series [2], this compound yielded a logD of 2.86. Moreover, the kinetic solubility in series [3] was not below 148 µg/mL.

On to `Nc1ccccc1NC(=O)c1ccc(CNC2=NC[C@@H](c3ccccc3)O2)cc1`, for which the logP in series [1] was found to be 3.58. Further, the logD in series [2] was found to be 2.79. Further, the kinetic solubility in series [3] was determined as 98 µg/mL (≈ 254 µM).

The compound `Nc1ccccc1NC(=O)c1ccc(CNC2=NC[C@H](c3ccccc3)O2)cc1` displayed a logP in series [1] of 3.84. The logD in series [2] is 2.99. Besides, in series [3], the solubility (kinetic) is 77 µg/mL (≈ 199 µM).

Compound `Nc1ccccc1NC(=O)c1ccc(CNC2=NC(c3ccccc3)(c3ccccc3)CO2)cc1` showed a logP in series [1] of 5.59. The compound further displayed a logD in series [2] of 5.29. In series [3], this compound gave a solubility (kinetic) of 7 µg/mL (≈ 15.1 µM).

`Nc1ccccc1NC(=O)c1ccc(CNC2=N[C@@H](c3ccccc3)[C@H](c3ccccc3)O2)cc1` came in with a logP in series [1] of 5.41. Further, the logD in series [2] amounted to 5.01. The solubility (kinetic) in series [3] is 6 µg/mL (≈ 13 µM).

`Nc1ccccc1NC(=O)c1ccc(CNC2=N[C@H](c3ccccc3)[C@H](c3ccccc3)O2)cc1`: in series [1], the logP came to 5.01. This compound registered a logD in series [2] of 4.54. Further, the kinetic solubility in series [3] was determined as 73 µg/mL (≈ 158 µM).

In turn, `Nc1ccccc1NC(=O)c1ccc(CNC2=N[C@@H](Cc3c[nH]cn3)CO2)cc1` had a logP in series [1] of 0.95. This compound also displayed a logD in series [2] of 0.9. The compound also registered a solubility (kinetic) in series [3] not below 142 µg/mL.

With `Nc1ccccc1NC(=O)c1ccc(CNC2=N[C@H](Cc3c[nH]cn3)CO2)cc1`, the logP in series [1] was found to be 0.93. Besides, the logD in series [2] was determined as 0.89. The kinetic solubility in series [3] is not below 158 µg/mL.

As to `Nc1ccccc1NC(=O)c1ccc(CNc2nccc(-c3cccnc3)n2)cc1` [MOCETINOSTAT], the logP in series [1] amounted to 2.96. In series [2], this compound had a logD of 2.96. In addition, the solubility (kinetic) in series [3] was 107 µg/mL (≈ 270 µM).
